Source: the supplement of paper PMC5303821, “Major sulfonate transporter Soa1 in Saccharomyces cerevisiae and considerable substrate diversity in its fungal family” (Nature Communications, 2017)

What was measured:
[1] = system: Ogataea parapolymorpha_XP_013935289; test: lag phase before growth; higher = slower start of growth; settings: S. cerevisiae S288C/BY sul1Δ sul2Δ soa1Δ with transporter ortholog inserted at SOA1 locus, sulfur-free B medium, 4% glucose, pH 6.5, sole sulfur source
Method: (§1)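 S. cerevisiae sul1Δ sul2Δ soa1Δ strains expressing 20 fungal SOA1 orthologs (or no transporter, 'soa1 del') were grown in liquid sulfur-free B medium, 4% glucose, pH 6.5 (7 mM K2HPO4). The strains were sulfur-starved for 3 days beforehand. Each sulfur compound was the sole sulfur source at 200 µM (sulfate also at 40 mM). OD600 curves of duplicate cultures were averaged and fitted (logistic / Richards, GroFit) to give maximal growth rate, maximal density and lag phase; temperature not stated.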

[2] = system: Metarhizium robertsii_XP_007822519; test: as above; settings: sulfur source concentration 200 µM; S. cerevisiae S288C/BY sul1Δ sul2Δ soa1Δ with transporter ortholog inserted at SOA1 locus; sulfur-free B medium, 4% glucose, pH 6.5, sole sulfur source
Method: as §1

[3] = system: Saccharomyces cerevisiae_SOA1; test: as above; settings: S. cerevisiae S288C/BY sul1Δ sul2Δ soa1Δ with transporter ortholog inserted at SOA1 locus, sulfur-free B medium, 4% glucose, pH 6.5, sole sulfur source
Method: as §1

[4] = system: Saccharomyces uvarum_SOA1; test: as above; settings: S. cerevisiae S288C/BY sul1Δ sul2Δ soa1Δ with transporter ortholog inserted at SOA1 locus, sulfur-free B medium, 4% glucose, pH 6.5, sole sulfur source
Method: as §1

[5] = system: Aspergillus nidulans_XP_660670; test: maximal culture density with compound as sole sulfur source (OD600); higher = better growth; settings: S. cerevisiae S288C/BY sul1Δ sul2Δ soa1Δ with transporter ortholog inserted at SOA1 locus, sulfur-free B medium, 4% glucose, pH 6.5, sole sulfur source
Method: as §1

[6] = system: Ogataea parapolymorpha_XP_013936897; test: as above; settings: S. cerevisiae S288C/BY sul1Δ sul2Δ soa1Δ with transporter ortholog inserted at SOA1 locus, sulfur-free B medium, 4% glucose, pH 6.5, sole sulfur source
Method: as §1

[7] = system: Aspergillus nidulans_CBF80346; test: as above; settings: S. cerevisiae S288C/BY sul1Δ sul2Δ soa1Δ with transporter ortholog inserted at SOA1 locus, sulfur-free B medium, 4% glucose, pH 6.5, sole sulfur source
Method: as §1

[8] = system: Ogataea parapolymorpha_XP_013935289; test: as above; settings: S. cerevisiae S288C/BY sul1Δ sul2Δ soa1Δ with transporter ortholog inserted at SOA1 locus, sulfur-free B medium, 4% glucose, pH 6.5, sole sulfur source
Method: as §1

[9] = system: Metarhizium robertsii_XP_007823832; test: as above; settings: S. cerevisiae S288C/BY sul1Δ sul2Δ soa1Δ with transporter ortholog inserted at SOA1 locus, sulfur-free B medium, 4% glucose, pH 6.5, sole sulfur source
Method: as §1

[10] = system: Aspergillus nidulans_XP_661733; test: as above; settings: S. cerevisiae S288C/BY sul1Δ sul2Δ soa1Δ with transporter ortholog inserted at SOA1 locus, sulfur-free B medium, 4% glucose, pH 6.5, sole sulfur source
Method: as §1

[11] = system: Aspergillus nidulans (IAM 2006)_astA; test: as above; settings: S. cerevisiae S288C/BY sul1Δ sul2Δ soa1Δ with transporter ortholog inserted at SOA1 locus, sulfur-free B medium, 4% glucose, pH 6.5, sole sulfur source
Method: as §1

[12] = system: Aspergillus nidulans_CBF74694; test: as above; settings: S. cerevisiae S288C/BY sul1Δ sul2Δ soa1Δ with transporter ortholog inserted at SOA1 locus, sulfur-free B medium, 4% glucose, pH 6.5, sole sulfur source
Method: as §1

[13] = system: Aspergillus nidulans_XP_681611; test: as above; settings: S. cerevisiae S288C/BY sul1Δ sul2Δ soa1Δ with transporter ortholog inserted at SOA1 locus, sulfur-free B medium, 4% glucose, pH 6.5, sole sulfur source
Method: as §1

[14] = system: Saccharomyces uvarum_SOA2; test: as above; settings: S. cerevisiae S288C/BY sul1Δ sul2Δ soa1Δ with transporter ortholog inserted at SOA1 locus, sulfur-free B medium, 4% glucose, pH 6.5, sole sulfur source
Method: as §1

[15] = system: Metarhizium robertsii_XP_007822519; test: as above; settings: S. cerevisiae S288C/BY sul1Δ sul2Δ soa1Δ with transporter ortholog inserted at SOA1 locus, sulfur-free B medium, 4% glucose, pH 6.5, sole sulfur source
Method: as §1

[16] = system: Saccharomyces cerevisiae_SOA1; test: as above; settings: S. cerevisiae S288C/BY sul1Δ sul2Δ soa1Δ with transporter ortholog inserted at SOA1 locus, sulfur-free B medium, 4% glucose, pH 6.5, sole sulfur source
Method: as §1

[17] = system: Saccharomyces eubayanus_SOA1; test: as above; settings: S. cerevisiae S288C/BY sul1Δ sul2Δ soa1Δ with transporter ortholog inserted at SOA1 locus, sulfur-free B medium, 4% glucose, pH 6.5, sole sulfur source
Method: as §1

[18] = system: Saccharomyces eubayanus_SOA2; test: as above; settings: S. cerevisiae S288C/BY sul1Δ sul2Δ soa1Δ with transporter ortholog inserted at SOA1 locus, sulfur-free B medium, 4% glucose, pH 6.5, sole sulfur source
Method: as §1

[19] = system: Metarhizium robertsii_XP_007821441; test: as above; settings: S. cerevisiae S288C/BY sul1Δ sul2Δ soa1Δ with transporter ortholog inserted at SOA1 locus, sulfur-free B medium, 4% glucose, pH 6.5, sole sulfur source
Method: as §1

[20] = system: Saccharomyces uvarum_SOA1; test: as above; settings: S. cerevisiae S288C/BY sul1Δ sul2Δ soa1Δ with transporter ortholog inserted at SOA1 locus, sulfur-free B medium, 4% glucose, pH 6.5, sole sulfur source
Method: as §1

[21] = system: Aspergillus nidulans_XP_660563; test: as above; settings: S. cerevisiae S288C/BY sul1Δ sul2Δ soa1Δ with transporter ortholog inserted at SOA1 locus, sulfur-free B medium, 4% glucose, pH 6.5, sole sulfur source
Method: as §1

[22] = system: Ogataea parapolymorpha_XP_013932458; test: as above; settings: S. cerevisiae S288C/BY sul1Δ sul2Δ soa1Δ with transporter ortholog inserted at SOA1 locus, sulfur-free B medium, 4% glucose, pH 6.5, sole sulfur source
Method: as §1

[23] = system: soa1 del; test: as above; settings: S. cerevisiae S288C/BY sul1Δ sul2Δ soa1Δ with transporter ortholog inserted at SOA1 locus, sulfur-free B medium, 4% glucose, pH 6.5, sole sulfur source
Method: as §1

[24] = system: Aspergillus nidulans_XP_661711; test: as above; settings: S. cerevisiae S288C/BY sul1Δ sul2Δ soa1Δ with transporter ortholog inserted at SOA1 locus, sulfur-free B medium, 4% glucose, pH 6.5, sole sulfur source
Method: as §1

[25] = system: Fusarium oxysporum_ENH65823; test: as above; settings: sulfur source concentration 200 µM; S. cerevisiae S288C/BY sul1Δ sul2Δ soa1Δ with transporter ortholog inserted at SOA1 locus; sulfur-free B medium, 4% glucose, pH 6.5, sole sulfur source
Method: as §1

[26] = system: Aspergillus nidulans_XP_660670; test: maximal growth rate with compound as sole sulfur source (OD600 per h); higher = better growth / uptake of the sulfur source; settings: S. cerevisiae S288C/BY sul1Δ sul2Δ soa1Δ with transporter ortholog inserted at SOA1 locus, sulfur-free B medium, 4% glucose, pH 6.5, sole sulfur source
Method: as §1

[27] = system: Ogataea parapolymorpha_XP_013936897; test: as above; settings: S. cerevisiae S288C/BY sul1Δ sul2Δ soa1Δ with transporter ortholog inserted at SOA1 locus, sulfur-free B medium, 4% glucose, pH 6.5, sole sulfur source
Method: as §1

[28] = system: Aspergillus nidulans (IAM 2006)_astA; test: as above; settings: S. cerevisiae S288C/BY sul1Δ sul2Δ soa1Δ with transporter ortholog inserted at SOA1 locus, sulfur-free B medium, 4% glucose, pH 6.5, sole sulfur source
Method: as §1

[29] = system: Aspergillus nidulans_XP_681611; test: as above; settings: S. cerevisiae S288C/BY sul1Δ sul2Δ soa1Δ with transporter ortholog inserted at SOA1 locus, sulfur-free B medium, 4% glucose, pH 6.5, sole sulfur source
Method: as §1

[30] = system: Metarhizium robertsii_XP_007822519; test: as above; settings: S. cerevisiae S288C/BY sul1Δ sul2Δ soa1Δ with transporter ortholog inserted at SOA1 locus, sulfur-free B medium, 4% glucose, pH 6.5, sole sulfur source
Method: as §1

[31] = system: Metarhizium robertsii_XP_007821441; test: as above; settings: S. cerevisiae S288C/BY sul1Δ sul2Δ soa1Δ with transporter ortholog inserted at SOA1 locus, sulfur-free B medium, 4% glucose, pH 6.5, sole sulfur source
Method: as §1

[32] = system: Ogataea parapolymorpha_XP_013932458; test: as above; settings: S. cerevisiae S288C/BY sul1Δ sul2Δ soa1Δ with transporter ortholog inserted at SOA1 locus, sulfur-free B medium, 4% glucose, pH 6.5, sole sulfur source
Method: as §1

[33] = system: soa1 del; test: as above; settings: S. cerevisiae S288C/BY sul1Δ sul2Δ soa1Δ with transporter ortholog inserted at SOA1 locus, sulfur-free B medium, 4% glucose, pH 6.5, sole sulfur source
Method: as §1

[34] = system: Aspergillus nidulans_XP_661711; test: as above; settings: S. cerevisiae S288C/BY sul1Δ sul2Δ soa1Δ with transporter ortholog inserted at SOA1 locus, sulfur-free B medium, 4% glucose, pH 6.5, sole sulfur source
Method: as §1

[35] = system: Fusarium oxysporum_ENH65823; test: as above; settings: S. cerevisiae S288C/BY sul1Δ sul2Δ soa1Δ with transporter ortholog inserted at SOA1 locus, sulfur-free B medium, 4% glucose, pH 6.5, sole sulfur source
Method: as §1

[36] = system: Saccharomyces eubayanus_SOA1; test: lag phase before growth; higher = slower start of growth; settings: sulfur source concentration 40000 µM; S. cerevisiae S288C/BY sul1Δ sul2Δ soa1Δ with transporter ortholog inserted at SOA1 locus; sulfur-free B medium, 4% glucose, pH 6.5, sole sulfur source
Method: as §1

[37] = sulfur source concentration 200 µM
[38] = sulfur source concentration 40000 µM

N[C@@H](CS(=O)(=O)O)C(=O)O [L-cysteic acid]
lag phase before growth [1, 37]: 10.9 h
lag phase before growth [2]: 17.9 h
lag phase before growth [3, 37]: 12.6 h
lag phase before growth [4, 37]: 6.98 h
maximal culture density [5, 37]: 1.13
maximal culture density [6, 37]: 0.391
maximal culture density [7, 37]: 0.823
maximal culture density [8, 37]: 1.51
maximal culture density [9, 37]: 1.43
maximal culture density [10, 37]: 1.3
maximal culture density [11, 37]: 1.41
maximal culture density [12, 37]: 0.451
maximal culture density [13, 37]: 0.861
maximal culture density [14, 37]: 0.234
maximal culture density [15, 37]: 1.38
maximal culture density [16, 37]: 1.46
maximal culture density [17, 37]: 0.561
maximal culture density [18, 37]: 0.254
maximal culture density [19, 37]: 0.3
maximal culture density [20, 37]: 1.25
maximal culture density [21, 37]: 0.535
maximal culture density [22, 37]: 0.331
maximal culture density [23, 37]: 0.254
maximal culture density [24, 37]: 1.16
maximal culture density [25]: 1.16
maximal growth rate [26, 37]: 0.00837
maximal growth rate [27, 37]: 0.00557
maximal growth rate [28, 37]: 0.0282
maximal growth rate [29, 37]: 0.00678
maximal growth rate [30, 37]: 0.00861
maximal growth rate [31, 37]: 0.00544
maximal growth rate [32, 37]: 0.00397
maximal growth rate [33, 37]: 0.00337
maximal growth rate [34, 37]: 0.00852
maximal growth rate [35, 37]: 0.01

O=S(=O)(O)O [sulfate]
lag phase before growth [1, 37]: 25.8 h
lag phase before growth [1, 38]: 7.95 h
lag phase before growth [3, 38]: 13.8 h
lag phase before growth [36]: 16.8 h
lag phase before growth [4, 38]: 10.7 h
maximal culture density [5, 37]: 0.223
maximal culture density [5, 38]: 0.277
maximal culture density [6, 37]: 0.294
maximal culture density [6, 38]: 0.301
maximal culture density [7, 37]: 0.243
maximal culture density [7, 38]: 0.216
maximal culture density [8, 37]: 1.58
maximal culture density [8, 38]: 1.65
maximal culture density [9, 37]: 1.57
maximal culture density [9, 38]: 1.63
maximal culture density [10, 37]: 0.264
maximal culture density [10, 38]: 1.57
maximal culture density [11, 37]: 1.6
maximal culture density [11, 38]: 1.68
maximal culture density [12, 37]: 0.184
maximal culture density [12, 38]: 0.208
maximal culture density [13, 37]: 0.294
maximal culture density [13, 38]: 0.301
maximal culture density [14, 37]: 0.199
maximal culture density [14, 38]: 0.212
maximal culture density [15, 37]: 0.186
maximal culture density [15, 38]: 0.213
maximal culture density [16, 37]: 0.274
maximal culture density [16, 38]: 1.71
maximal culture density [17, 37]: 0.251
maximal culture density [17, 38]: 1.62
maximal culture density [18, 37]: 0.201
maximal culture density [18, 38]: 0.21
maximal culture density [19, 37]: 0.215
maximal culture density [19, 38]: 0.225
maximal culture density [20, 37]: 0.265
maximal culture density [20, 38]: 1.65
maximal culture density [21, 37]: 0.31
maximal culture density [21, 38]: 0.315
maximal culture density [22, 37]: 0.281
maximal culture density [22, 38]: 0.343
maximal culture density [23, 37]: 0.212
maximal culture density [23, 38]: 0.222
maximal culture density [24, 37]: 0.224
maximal culture density [24, 38]: 0.382
maximal culture density [25]: 0.233
maximal growth rate [26, 37]: 0.00401
maximal growth rate [26, 38]: 0.00492
maximal growth rate [27, 37]: 0.00477
maximal growth rate [27, 38]: 0.00462
maximal growth rate [28, 37]: 0.0953
maximal growth rate [28, 38]: 0.102
maximal growth rate [29, 37]: 0.00615
maximal growth rate [29, 38]: 0.0061
maximal growth rate [30, 37]: 0.00347
maximal growth rate [30, 38]: 0.00386
maximal growth rate [31, 37]: 0.00309
maximal growth rate [31, 38]: 0.00378
maximal growth rate [32, 37]: 0.00477
maximal growth rate [32, 38]: 0.00353
maximal growth rate [33, 37]: 0.00368
maximal growth rate [33, 38]: 0.0039
maximal growth rate [34, 37]: 0.00398
maximal growth rate [34, 38]: 0.00545
maximal growth rate [35, 37]: 0.00376
maximal growth rate [35, 38]: 0.0142
